Laboratory results as given in US11000033B2, “Ketone or oxime compound, and herbicide” (NISSAN CHEMICAL CORPORATION, priority 2014, dated 2021).

Columns and labels:
Assay type in all cases: in vivo
Veronica persica = experiment: Test Example 4: herbicidal effect by soil treatment (symbol R)
Method in brief: (§1)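 Seeds were sown in sterilized diluvial soil, covered with about 1.5 cm of soil, and the soil surface was sprayed with a water-diluted emulsion of the compound at a predetermined rate. Plants grew in a greenhouse at 25° C. to 30° C.; effects were scored visually 3 weeks after application.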

rapeseed = experiment: Test Example 5: effect on crop by foliage application, plastic box (symbol g); settings: 320 g/ha, 3 weeks after application
Method in brief: (§2)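 Crop and weed seeds sown in spots in sterilized diluvial soil in plastic boxes and covered with about 1.5 cm soil. Plants raised in a greenhouse at 25° C. to 30° C. for foliar application.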

Chenopodium album = experiment: Test Example 4: herbicidal effect by soil treatment (symbol O)
Method in brief: as §1

Setaria viridis = experiment: Test Example 4: herbicidal effect by soil treatment (symbol G); settings: for G: Setaria viridis, herbicidal effect grade: 320 g/ha
Method in brief: as §1

Apera spica-venti [1] = experiment: Test Example 5: herbicidal effect by foliage application, plastic box (symbol L); settings: 320 g/ha, 3 weeks after application
Method in brief: (§3)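 Greenhouse foliar test: seedlings at 14 days, grown 25° C. to 30° C. in sterilized diluvial soil; compound applied as an aqueous dilution of an emulsion; response read 3 weeks after spraying.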

Alopecurus myosuroides [2] = experiment: Test Example 4: herbicidal effect by soil treatment (symbol J)
Method in brief: as §1

Scirpus juncoides [3] = experiment: Test Example 1: herbicidal activity, application before weed generation in submerged conditions (symbol B); settings: application herbicide amount 320 g/ha
Method in brief: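 Greenhouse growth at 25–30 °C lasted 3 weeks after treatment, when each weed was graded 0–5 by herbicidal ratio. Treatment was a diluted emulsion applied to the water surface of 4 cm-submerged alluvial soil on the sowing day.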

Apera spica-venti [4] = experiment: Test Example 4: herbicidal effect by soil treatment (symbol L)
Method in brief: as §1

Scirpus juncoides [5] = experiment: Test Example 2: herbicidal activity, application during weed generation in submerged conditions (symbol B); settings: Table 23; application herbicide amount 320 g/ha; grade 0-5 by criteria of Test Example 1
Method in brief: (§4)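 Seeds sown in flooded alluvial soil (4 cm water) were grown in a 25-30° C greenhouse. At the one- to two-leaf stage, diluted emulsion of compound was applied to the water surface at a predetermined rate. Effect was scored 3 weeks later.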

Avena fatua = experiment: Test Example 4: herbicidal effect by soil treatment (symbol I)
Method in brief: as §1

Alopecurus myosuroides [6] = experiment: Test Example 5: herbicidal effect by foliage application, plastic box (symbol J); settings: 320 g/ha, 3 weeks after application
Method in brief: as §3

Abutilon theophrasti = experiment: Test Example 4: herbicidal effect by soil treatment (symbol M)
Method in brief: as §1

corn = experiment: Test Example 5: effect on crop by foliage application, plastic box (symbol c); settings: 320 g/ha, 3 weeks after application
Method in brief: as §2

[7] = system: Echinochloa oryzacola Vasing.; experiment: Test Example 2: herbicidal activity, application during weed generation in submerged conditions (symbol A); settings: Table 23; application herbicide amount 320 g/ha; grade 0-5 by criteria of Test Example 1
Method in brief: as §4

Cyperus difformis = experiment: Test Example 3: herbicidal effect by foliage application, Wagner pot (symbol E); settings: application herbicide amount 320 g/ha; for E herbicidal effect grade: Table 24
Method in brief: (§5)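 Plants sown in submerged alluvial soil (water depth 0.1–0.5 cm) in a 25–30 °C greenhouse and grown 14 days. An emulsion of the compound diluted in water to a set herbicide amount was sprayed uniformly on foliage. Effect on each plant scored 3 weeks after application.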

[8] = system: Echinochloa crus-galli var. crus-galli; experiment: Test Example 3: herbicidal effect by foliage application, Wagner pot (symbol H); settings: application herbicide amount 320 g/ha; for H (Echinochloa crus-galli var. crus-galli) herbicidal effect grade: Table 24
Method in brief: as §5

[9] = application herbicide amount 320 g/ha

SMILES | R: Veronica persica, herbicidal effect grade (Veronica persica; 320 g/ha) | g: rapeseed, effect on crop (criteria 0-5) (rapeseed) | O: Chenopodium album, herbicidal effect grade (Chenopodium album; 320 g/ha) | G: Setaria viridis, herbicidal effect grade (Setaria viridis) | L: Apera spica-venti, herbicidal effect (criteria 0-5) (Apera spica-venti [1]) | J: Alopecurus myosuroides, herbicidal effect grade (Alopecurus myosuroides [2]; 320 g/ha) | Herbicidal effect grade, B: Scirpus juncoides (Scirpus juncoides [3]) | L: Apera spica-venti, herbicidal effect grade (Apera spica-venti [4]; 320 g/ha) | Herbicidal effect grade, B: Scirpus juncoides (Scirpus juncoides [5]) | I: Avena fatua, herbicidal effect grade (Avena fatua; 320 g/ha) | J: Alopecurus myosuroides, herbicidal effect (criteria 0-5) (Alopecurus myosuroides [6]) | M: Abutilon theophrasti, herbicidal effect grade (Abutilon theophrasti; 320 g/ha) | c: corn, effect on crop (criteria 0-5) (corn) | Herbicidal effect grade, A: Echinochloa oryzacola Vasing. [7] | herbicidal effect on E, grade 0-5 (Cyperus difformis) | herbicidal effect on H (Echinochloa crus-galli var. crus-galli), grade 0-5 [8] | g: rapeseed, effect on crop grade (rapeseed) | E herbicidal effect grade (Cyperus difformis) | L: Apera spica-venti, herbicidal effect grade (Apera spica-venti [1]) | B (Scirpus juncoides) herbicidal effect grade (Scirpus juncoides [3]) | other results
CC(CC1CC(O)=C(c2c(C)cc(C)cc2C)C1=O)=NOCc1ccccc1Cl (centres unmarked) [1-113] | 0 (Herbicidal ratio of 5% or lower (almost no effect)) | 5 (Herbicidal ratio of 90% or more (almost completely withered)) | 0 (Herbicidal ratio of 5% or lower (almost no effect)) | 0 (Herbicidal ratio of 5% or lower (almost no effect)) | 5 (Herbicidal ratio of 90% or more (almost completely withered)) | 3 (Herbicidal ratio of 40% or higher and lower than 70%) | 4 (Herbicidal ratio of 70% or higher and lower than 90%) | 5 (Herbicidal ratio of 90% or more (almost completely withered)) | 3 (Herbicidal ratio of 40% or higher and lower than 70%) | 3 (Herbicidal ratio of 40% or higher and lower than 70%) | 4 (Herbicidal ratio of 70% or higher and lower than 90%) | 0 (Herbicidal ratio of 5% or lower (almost no effect)) | 0 (Herbicidal ratio of 5% or lower (almost no effect)) | 3 (Herbicidal ratio of 40% or higher and lower than 70%) |  |  |  |  |  |  | 
CON=C(C)CC1CC(OC(=O)N(C)CCCCCl)=C(c2c(C)cc(C)cc2C)C1=O (centres unmarked) [1-126] | 0 (Herbicidal ratio of 5% or lower (almost no effect)) | 4 (Herbicidal ratio of 70% or higher and lower than 90%) | 0 (Herbicidal ratio of 5% or lower (almost no effect)) | 0 (Herbicidal ratio of 5% or lower (almost no effect)) | 3 (Herbicidal ratio of 40% or higher and lower than 70%) | 3 (Herbicidal ratio of 40% or higher and lower than 70%) | 0 (Herbicidal ratio of 5% or lower (almost no effect)) | 0 (Herbicidal ratio of 5% or lower (almost no effect)) |  | 0 (Herbicidal ratio of 5% or lower (almost no effect)) | 5 (Herbicidal ratio of 90% or more (almost completely withered)) | 0 (Herbicidal ratio of 5% or lower (almost no effect)) | 0 (Herbicidal ratio of 5% or lower (almost no effect)) |  | 2 (Herbicidal ratio of 20% or higher and lower than 40%) | 3 (Herbicidal ratio of 40% or higher and lower than 70%) |  |  |  |  | 
CCC(CC1CC(O)=C(c2c(C)cc(Br)cc2OC)C1=O)=NOC (mixture of isomers) [13-001] |  |  |  |  |  |  |  |  | 0 (Herbicidal ratio of 5% or lower (almost no effect)) |  |  |  |  | 5 (Herbicidal ratio of 90% or more (almost completely withered)) |  |  | 4 (Herbicidal ratio of 70% or higher and lower than 90%) | 4 (Herbicidal ratio of 70% or higher and lower than 90%) | 5 (Herbicidal ratio of 90% or more (almost completely withered)) | 2 (Herbicidal ratio of 20% or higher and lower than 40%) | R: Veronica persica, herbicidal effect grade (Veronica persica; [9]): 0 (Herbicidal ratio of 5% or lower (almost no effect)); O: Chenopodium album, herbicidal effect grade (Chenopodium album; [9]): 0 (Herbicidal ratio of 5% or lower (almost no effect)); J: Alopecurus myosuroides, herbicidal effect grade (Alopecurus myosuroides [2]; [9]): 4 (Herbicidal ratio of 70% or higher and lower than 90%); L: Apera spica-venti, herbicidal effect grade (Apera spica-venti [4]; [9]): 5 (Herbicidal ratio of 90% or more (almost completely withered)); I: Avena fatua, herbicidal effect grade (Avena fatua; [9]): 2 (Herbicidal ratio of 20% or higher and lower than 40%); H (Echinochloa crus-galli var. crus-galli) herbicidal effect grade [8]: 5 (Herbicidal ratio of 90% or more (almost completely withered)); J: Alopecurus myosuroides, herbicidal effect grade (Alopecurus myosuroides [6]): 5 (Herbicidal ratio of 90% or more (almost completely withered)); M: Abutilon theophrasti, herbicidal effect grade (Abutilon theophrasti; [9]): 0 (Herbicidal ratio of 5% or lower (almost no effect)); c: corn, effect on crop grade (corn): 5 (Herbicidal ratio of 90% or more (almost completely withered))
CC(CC1CC(OC(=O)N2CCOCC2)=C(c2c(C)cc(-c3ccc(Cl)cc3)cc2C)C1=O)=NOCC(F)(F)F (mixture of isomers) [9-025] |  |  |  |  |  |  |  |  |  |  |  |  |  |  |  |  | 0 (Herbicidal ratio of 5% or lower (almost no effect)) | 0 (Herbicidal ratio of 5% or lower (almost no effect)) | 0 (Herbicidal ratio of 5% or lower (almost no effect)) | 1 (Herbicidal ratio of 5% or higher and lower than 20%) | Herbicidal effect grade, R: Veronica persica (Veronica persica; [9]): 0 (Herbicidal ratio of 5% or lower (almost no effect)); Herbicidal effect grade, O: Chenopodium album (Chenopodium album; [9]): 0 (Herbicidal ratio of 5% or lower (almost no effect)); Herbicidal effect grade, G: Setaria viridis (Setaria viridis; [9]): 0 (Herbicidal ratio of 5% or lower (almost no effect)); Herbicidal effect grade, J: Alopecurus myosuroides (Alopecurus myosuroides [2]; [9]): 0 (Herbicidal ratio of 5% or lower (almost no effect)); Herbicidal effect grade, L: Apera spica-venti (Apera spica-venti [4]; [9]): 0 (Herbicidal ratio of 5% or lower (almost no effect)); Herbicidal effect grade, I: Avena fatua (Avena fatua; [9]): 0 (Herbicidal ratio of 5% or lower (almost no effect)); H (Echinochloa crus-galli var. crus-galli) herbicidal effect grade [8]: 0 (Herbicidal ratio of 5% or lower (almost no effect)); J: Alopecurus myosuroides, herbicidal effect grade (Alopecurus myosuroides [6]): 0 (Herbicidal ratio of 5% or lower (almost no effect)); Herbicidal effect grade, M: Abutilon theophrasti (Abutilon theophrasti; [9]): 0 (Herbicidal ratio of 5% or lower (almost no effect)); c: corn, effect on crop grade (corn): 5 (Herbicidal ratio of 90% or more (almost completely withered))
CC(CC1CC(O)=C(c2c(C)cc(C)cc2C)C1=O)=NOCc1ccccc1[N+](=O)[O-] (centres unmarked) [1-119] | 0 (Herbicidal ratio of 5% or lower (almost no effect)) | 5 (Herbicidal ratio of 90% or more (almost completely withered)) | 0 (Herbicidal ratio of 5% or lower (almost no effect)) | 4 (Herbicidal ratio of 70% or higher and lower than 90%) | 5 (Herbicidal ratio of 90% or more (almost completely withered)) | 4 (Herbicidal ratio of 70% or higher and lower than 90%) | 0 (Herbicidal ratio of 5% or lower (almost no effect)) | 5 (Herbicidal ratio of 90% or more (almost completely withered)) |  | 1 (Herbicidal ratio of 5% or higher and lower than 20%) | 5 (Herbicidal ratio of 90% or more (almost completely withered)) | 0 (Herbicidal ratio of 5% or lower (almost no effect)) | 2 (Herbicidal ratio of 20% or higher and lower than 40%) |  | 0 (Herbicidal ratio of 5% or lower (almost no effect)) | 5 (Herbicidal ratio of 90% or more (almost completely withered)) |  |  |  |  | 
